# Values quoted from earlier work, collected in patent publication US8426044B2, “Method for imparting antimicrobial activity to a medical device” (Board of Regents, The University of Texas System, priority 2009, dated 2013).
# How the values were obtained:
# [1] = for solubility in organic solvents: organic solvents incl. alcohols, ketones, ethers, aldehydes, acetonitrile, acetic acid, methylene chloride, chloroform
# [2] = test system: Pseudomonas aeruginosa cells embedded in a biofilm; conditions: MBC for the identical strain grown in liquid suspension
SMILES,solubility in organic solvents [1],solubility in water [1],antibiotic level unable to kill biofilm-embedded cells [2]
[H]/N=C(\N/C(=N/[H])NCCCCCCNC(=N)NC(=N)Nc1ccc(Cl)cc1)Nc1ccc(Cl)cc1 [Chlorhexidine],soluble in both water and organic solutions,soluble in both water and organic solutions,–
CO[C@H]1/C=C/O[C@@]2(C)Oc3c(C)c(O)c4c(O)c(c(/C=N/N5CCN(C)CC5)c(O)c4c3C2=O)NC(=O)/C(C)=C\C=C\[C@H](C)[C@H](O)[C@@H](C)[C@@H](O)[C@@H](C)[C@H](OC(C)=O)[C@@H]1C [Rifampin],freely soluble in acidic aqueous solutions and organic solutions,very slightly soluble in water,–
NC[C@H]1O[C@H](O[C@H]2[C@H](O)[C@@H](O[C@H]3O[C@H](CO)[C@@H](O)[C@H](N)[C@H]3O)[C@H](N)C[C@@H]2N)[C@H](N)C[C@@H]1O [tobramycin],–,–,greater than 50 times the minimum bactericidal concentration (MBC)
